The values below are quoted from earlier work in PubChem BioAssay AID1259409 (Chemical Carcinogenesis Research Information System (CCRIS), 2018).

The structures appear in SMILES notation. Several values for one entry are separate records, joined by “and”; a condition that tells them apart may be missing. Equal entries are not always repeated.

The data set concerns rodent chemically induced tumor inhibition, incidence and multiplicity. Description: CCRIS tumor inhibitor studies. The following applies: Carcinogen: 4-NITROQUINOLINE-1-OXIDE [56-57-5], Route [Inhibitor]: ORAL, Species: RAT, Strain/Sex: F344/MALE, Target Tissue: Type of Lesion: TONGUE: SQUAMOUS CELL PAPILLOMA, Dose [Carcinogen]: 20 PPM FOR 8 WK IN DRINKING WATER (STUDY DURATION: 32 WK), Promoter: NONE.

Consider `O=c1c(O)c(-c2ccc(O)cc2O)oc2cc(O)cc(O)c12`, for which the “tumour outcome (control, treated, inhibition, significance)” value is, setting by setting: (Dose [Inhibitor]: 100 PPM IN DIET FOR 10 WK BEGINNING 1 WK PRIOR TO FIRST CARCINOGEN DOSE (STUDY DURATION: 32 WK)) 9/25 (36%), 3/19 (16%), 56%, not significant and 14/25 (56%), 1/19 (5%), 91%, p=0.0004; (Dose [Inhibitor]: 100 PPM IN DIET FOR 22 WK BEGINNING 1 WK POST LAST CARCINOGEN DOSE (STUDY DURATION: 31 WK)) 9/25 (36%), 0/20 (0%), 100%, p=0.003 and 14/25 (56%), 1/20 (5%), 91%, p=0.0003; (Dose [Inhibitor]: 500 PPM IN DIET FOR 10 WK BEGINNING 1 WK PRIOR TO FIRST CARCINOGEN DOSE (STUDY DURATION: 32 WK)) 9/25 (36%), 2/20 (10%), 72%, p=0.045 and 14/25 (56%), 0/20 (0%), 100%, p=0.00003; (Dose [Inhibitor]: 500 PPM IN DIET FOR 22 WK BEGINNING 1 WK POST LAST CARCINOGEN DOSE (STUDY DURATION: 31 WK)) 14/25 (56%), 1/20 (5%), 91%, p=0.0003.
